Measurements taken from paper PMC6419424, “Rational protein design of Bacillus sp. MN chitosanase for altered substrate binding and production of specific chitosan oligomers” (Journal of Biological Engineering, 2019).

Target: T1, CSN (BspCsnMN) (Bacillus sp. MN, UniProt H9CXV8)
T1 construct: GH8 chitosanase (EC 3.2.1.132), Strep-tag II fusion (pET-22b(+)::StrepII-csn), expressed in E. coli Rosetta 2 (DE3), Strep-Tactin purified
Assay: UHPLC-ELSD-ESI-MS product quantification, Hill fit
Format: biochemical
Conditions: 40 mM sodium acetate pH 6, 30 °C, 10 min

T1 sequence (H9CXV8 entry or part of it): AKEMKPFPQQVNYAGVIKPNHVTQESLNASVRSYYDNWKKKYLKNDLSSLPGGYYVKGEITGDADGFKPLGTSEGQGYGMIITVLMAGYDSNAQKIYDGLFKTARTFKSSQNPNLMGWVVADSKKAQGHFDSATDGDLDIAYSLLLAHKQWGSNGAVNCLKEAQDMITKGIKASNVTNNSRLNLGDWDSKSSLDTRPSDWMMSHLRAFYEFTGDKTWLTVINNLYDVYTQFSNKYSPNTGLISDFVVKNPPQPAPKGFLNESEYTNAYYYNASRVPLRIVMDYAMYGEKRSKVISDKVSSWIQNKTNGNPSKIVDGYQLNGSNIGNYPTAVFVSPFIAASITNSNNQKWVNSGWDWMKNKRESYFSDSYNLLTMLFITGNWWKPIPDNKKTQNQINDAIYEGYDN

## N[C@H]1[C@H](O[C@H]2[C@H](O)[C@@H](N)[C@H](O[C@H]3[C@H](O)[C@@H](N)[C@H](O[C@H]4[C@H](O)[C@@H](N)[C@H](O[C@H]5[C@H](O)[C@@H](N)C(O)O[C@@H]5CO)O[C@@H]4CO)O[C@@H]3CO)O[C@@H]2CO)O[C@H](CO)[C@@H](O)[C@@H]1O (stereo partly shown) [D5]
  UHPLC-ELSD-ESI-MS product quantification, Hill fit: CSN showed high activity on the polymer, and it was even slightly more active on D5
